Measurements: BindingDB's records for doi:10.1021/jm00214a010 (1977)

Molecular target: T1, Aminopeptidase B (Rattus norvegicus, UniProt O09175)
T1 sequence (O09175 whole entry): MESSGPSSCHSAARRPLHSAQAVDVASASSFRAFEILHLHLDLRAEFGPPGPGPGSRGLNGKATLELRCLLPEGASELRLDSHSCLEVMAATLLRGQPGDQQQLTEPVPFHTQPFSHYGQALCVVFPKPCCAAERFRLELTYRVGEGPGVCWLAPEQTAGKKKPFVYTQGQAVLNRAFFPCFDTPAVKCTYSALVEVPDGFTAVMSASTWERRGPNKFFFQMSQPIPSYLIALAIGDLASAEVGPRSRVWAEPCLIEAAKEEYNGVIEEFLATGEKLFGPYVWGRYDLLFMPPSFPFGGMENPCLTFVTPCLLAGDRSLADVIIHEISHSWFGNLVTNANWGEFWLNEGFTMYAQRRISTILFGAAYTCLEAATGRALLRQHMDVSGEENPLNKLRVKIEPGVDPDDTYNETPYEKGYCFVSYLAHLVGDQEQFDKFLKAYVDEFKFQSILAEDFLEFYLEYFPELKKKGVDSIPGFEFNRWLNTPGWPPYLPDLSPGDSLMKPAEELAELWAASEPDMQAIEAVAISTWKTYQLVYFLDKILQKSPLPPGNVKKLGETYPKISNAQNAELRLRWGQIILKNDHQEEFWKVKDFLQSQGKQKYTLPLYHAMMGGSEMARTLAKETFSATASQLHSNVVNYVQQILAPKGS
Assay: Inhibition of rat liver aminopeptidase B using 0.2 mM […] by colorimetry

IC50: 640 µM
Compound: CC(C)CCNC(=O)[C@@H](O)[C@H](N)Cc1ccccc1
